Laboratory results reported in patent US12398097B2, “WDR5-MYC inhibitors” (Vanderbilt University, priority 2019, dated 2025).

What follows are molecules tested against WDR5 (Homo sapiens, UniProt P61964) (assay: Competition-based fluorescence polarization anisotropy assay). Settings: binding to WDR5; displacement of FITC-labeled small molecule probe (analogous to Example J2 or HCH-25) or peptide probe FITC-AHx-SEEEIDVVSV; pH 6.0; Ki converted from IC50.
In short: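 Ki values derive from displacement of either a fluorescent small-molecule probe or a FITC-peptide probe from WDR5, monitored by fluorescence polarization. Assay run at pH 6.0 in 200 mM phosphate with 300 mM NaCl, 0.5 mM TCEP and 0.1% Chaps.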

SMILES	Ki [nM]
O=C(O)c1cc(S(F)(F)(F)(F)F)cc(NS(=O)(=O)c2cc(Br)cc(Cl)c2O)c1O [Example S64, 3-((5-Bromo-3-chloro-2-hydroxyphenyl)sulfonamido)-2-hydroxy-5-(pentafluoro-λ^6-sulfaneyl)benzoic acid]	20
O=C(O)c1cc(S(F)(F)(F)(F)F)cc(NS(=O)(=O)c2cc(Br)ccc2O)c1O [Example S65, 3-((5-Bromo-2-hydroxyphenyl)sulfonamido)-2-hydroxy-5-(pentafluoro-λ^6-sulfaneyl)benzoic acid]	30
CNC(=O)c1cc(S(F)(F)(F)(F)F)cc(NS(=O)(=O)c2cc(Br)ccc2O)c1O [Example S66, 3-((5-Bromo-2-hydroxyphenyl)sulfonamido)-2-hydroxy-N-methyl-5-(pentafluoro-λ^6-sulfaneyl)benzamide]	20
CNC(=O)c1cc(S(F)(F)(F)(F)F)cc(NS(=O)(=O)c2cc(Br)cc3cccnc23)c1O [Example S67]	90
O=C(O)c1cc(S(F)(F)(F)(F)F)cc(NS(=O)(=O)c2cc(Br)cc3cccnc23)c1O [Example S68]	20
CNC(=O)c1cc(Cl)cc(NS(=O)(=O)c2cc(Br)cc(Cl)c2O)c1 [Example S69, 3-((5-Bromo-3-chloro-2-hydroxyphenyl)sulfonamido)-5-chloro-N-methylbenzamide]	770
CNC(=O)c1cc(Cl)cc(NS(=O)(=O)c2cc(Br)ccc2O)c1 [Example S70, 3-((5-Bromo-2-hydroxyphenyl)sulfonamido)-5-chloro-N-methylbenzamide]	2930
N#CC1(c2cc(NS(=O)(=O)c3cc(Br)cc(Cl)c3O)cc(C(=O)O)c2)CCC1 [Example S71, 3-((5-Bromo-3-chloro-2-hydroxyphenyl)sulfonamido)-5-(1-cyanocyclobutyl)benzoic acid]	10
CS(=O)(=O)c1cc(NS(=O)(=O)c2cc(Br)cc(Cl)c2O)cc(C2(C#N)CCC2)c1 [Example S72, 5-Bromo-3-chloro-N-(3-(1-cyanocyclobutyl)-5-(methylsulfonyl)phenyl)-2-hydroxybenzenesulfonamide]	150
CS(=O)(=O)c1cc(NS(=O)(=O)c2cc(Br)ccc2O)cc(C2(C#N)CCC2)c1 [Example S73, 5-bromo-N-(3-(1-cyanocyclobutyl)-5-(methylsulfonyl)phenyl)-2-hydroxybenzenesulfonamide]	1030
O=C(O)CNC(=O)c1cc(OC(F)(F)F)cc(NS(=O)(=O)c2cc(Br)ccc2O)c1O [HCH-1, (3-((5-Bromo-2-hydroxyphenyl)sulfonamido)-2-hydroxy-5-(trifluoromethoxy)benzoyl)glycine]	650
O=S(=O)(Nc1cc(Cl)ccc1O)c1cccc(Br)c1 [HCH-1-9-4re, 3-Bromo-N-(5-chloro-2-hydroxyphenyl)benzenesulfonamide]	36100
O=S(=O)(Nc1cc(Cl)ccc1O)c1cc(Br)ccc1O [HCH-1-143-2, 5-Bromo-N-(5-chloro-2-hydroxyphenyl)-2-hydroxybenzenesulfonamide]	1250
CCc1cc(Br)cc(S(=O)(=O)Nc2cc(Cl)cc(C(=O)NCC3(O)CCN(C)CC3)c2O)c1O [HCH-2, 3-((5-Bromo-3-ethyl-2-hydroxyphenyl)sulfonamido)-5-chloro-2-hydroxy-N-((4-hydroxy-1-methylpiperidin-4-yl)methyl)benzamide]	600
O=S(=O)(Nc1cc(OC(F)(F)F)ccc1O)c1cc(Br)ccc1O [HCH-3-48-1, 5-Bromo-2-hydroxy-N-(2-hydroxy-5-(trifluoromethoxy)phenyl)benzenesulfonamide]	550
NC(=O)c1cc(OC(F)(F)F)cc(NS(=O)(=O)c2cc(Br)cc(CCCO)c2O)c1O [HCH-4, 3-((5-Bromo-2-hydroxy-3-(3-hydroxypropyl)phenyl)sulfonamido)-2-hydroxy-5-(trifluoromethoxy)benzamide]	580
O=C(NC1COC1)c1cc(OC(F)(F)F)cc(NS(=O)(=O)c2cc(Br)ccc2O)c1O [HCH-9, 3-((5-Bromo-2-hydroxyphenyl)sulfonamido)-2-hydroxy-N-(oxetan-3-yl)-5-(trifluoromethoxy)benzamide]	380
CCc1cc(Br)cc(S(=O)(=O)Nc2cc(Cl)cc(C(=O)O)c2O)c1O [HCH-11, 3-((5-Bromo-3-ethyl-2-hydroxyphenyl)sulfonamido)-5-chloro-2-hydroxybenzoic acid]	460
CCc1cc(NS(=O)(=O)c2cc(Br)cc(CC)c2O)c(O)c(C(=O)O)c1 [HCH-12, 3-((5-bromo-3-ethyl-2-hydroxyphenyl)sulfonamido)-5-ethyl-2-hydroxybenzoic acid]	200
CCc1cc(NS(=O)(=O)c2cc(Br)cc(OC(F)(F)F)c2O)c(O)c(C(=O)O)c1 [HCH-13, 3-((5-Bromo-2-hydroxy-3-(trifluoromethoxy)phenyl)sulfonamido)-5-ethyl-2-hydroxybenzoic acid]	220
CCc1cc(Br)cc(S(=O)(=O)Nc2cc(OC(F)(F)F)cc(C(=O)O)c2O)c1O [HCH-14, 3-((5-Bromo-3-ethyl-2-hydroxyphenyl)sulfonamido)-2-hydroxy-5-(trifluoromethoxy)benzoic acid]	130
O=C(O)c1cc(OC(F)(F)F)cc(NS(=O)(=O)c2cc(Br)cc(OC(F)(F)F)c2O)c1O [HCH-15, 3-((5-Bromo-2-hydroxy-3-(trifluoromethoxy)phenyl)sulfonamido)-2-hydroxy-5-(trifluoromethoxy)benzoic acid]	170
CCCc1cc(Br)cc(S(=O)(=O)Nc2cc(OC(F)(F)F)cc(C(=O)O)c2O)c1O [HCH-16, 3-((5-Bromo-2-hydroxy-3-propylphenyl)sulfonamido)-2-hydroxy-5-(trifluoromethoxy)benzoic acid]	110
CCCc1cc(Br)cc(S(=O)(=O)Nc2cc(Cl)cc(C(=O)O)c2O)c1O [HCH-17, 3-((5-Bromo-2-hydroxy-3-propylphenyl)sulfonamido)-5-chloro-2-hydroxybenzoic acid]	320
CCc1cc(NS(=O)(=O)c2cc(Br)ccc2O)c(O)c(C(=O)O)c1 [HCH-18, 3-((5-Bromo-2-hydroxyphenyl)sulfonamido)-5-ethyl-2-hydroxybenzoic acid]	60
CCc1cc(NS(=O)(=O)c2cc(Br)cc(F)c2O)c(O)c(C(=O)O)c1 [HCH-21, 3-((5-Bromo-3-fluoro-2-hydroxyphenyl)sulfonamido)-5-ethyl-2-hydroxybenzoic acid]	460
CCc1cc(NS(=O)(=O)c2cc(Br)cc(Cl)c2O)c(O)c(C(=O)O)c1 [HCH-22, 3-((5-Bromo-3-chloro-2-hydroxyphenyl)sulfonamido)-5-ethyl-2-hydroxybenzoic acid]	90
O=C(O)c1cc(OC(F)(F)F)cc(NS(=O)(=O)c2cc(Br)cc(Cl)c2O)c1O [HCH-24, 3-((5-Bromo-3-chloro-2-hydroxyphenyl)sulfonamido)-2-hydroxy-5-(trifluoromethoxy)benzoic acid]	40
NC(=O)c1cc(Cl)cc(NS(=O)(=O)c2cc(Br)cc(Cl)c2O)c1O [HCH-25, 3-((5-Bromo-3-chloro-2-hydroxyphenyl)sulfonamido)-5-chloro-2-hydroxybenzamide]	270
O=C(NCCO)c1cc(OC(F)(F)F)cc(NS(=O)(=O)c2cc(Br)ccc2O)c1O [HCH-26, 3-((5-Bromo-2-hydroxyphenyl)sulfonamido)-2-hydroxy-N-(2-hydroxyethyl)-5-(trifluoromethoxy)benzamide]	250
